# Measured values published in publication PMC11984586, “A novel spider toxin as a selective antagonist of the Kv1 subfamily of voltage-gated potassium channels through gating modulation” (The Journal of Biological Chemistry, 2025).
# Bridge positions count the residues as written; N and C are the ends. Peptide text beside a SMILES is read from it.
# Tests used:
# [1] = system: Kv1.1/1.3 S3-S4 chimeric channel; assay: Whole-cell patch clamp, chimeric channel; format: cell-based, human; settings: +30 mV, 500 ms, mean ± SD, n = 4-5, read-out: IC50, Kv1.1/1.3 S3-S4 current (complete inhibition)
# Text: (§1) To investigate the structural determinants underlying the differential regulatory effects of MrVIII on Kv1 channels, we employed a chimeric channel strategy. Using Kv1.3 as the template, the S1-S2, S3-S4, and S5-S6 transmembrane helices and their respective linkers from Kv1.1 were inserted to generate chimeras, generating the Kv1.3/1.1 S1-S2, Kv1.3/1.1 S3-S4, and Kv1.3/1.1 S5-S6 chimeric channels. […] These findings indicate that the S3-S4 is the key determinant for the differential inhibition of Kv1.1 and Kv1.3 by MrVIII. To further validate this conclusion, we constructed a reverse chimeric channel using Kv1.1 as the template, inserting the corresponding regions from Kv1.3 into Kv1.1. […] This finding more directly illustrates the exchange of the channel's voltage-dependence phenotype in toxin inhibition by swapping this S3-S4 between Kv1.1 and Kv1.3. […] In addition to confirming the differential role of S3-S4 between Kv1.1 and Kv1.3, we also substituted the S3-S4 of Kv1.4 and Kv1.7 into Kv1.3 to analyze MrVIII's inhibition profile. […] The IC50 for Kv1.3/1.7 S3-S4 could not be fitted, and inhi%(495 ms) was only 23.1 ± 10.0% (Fig. S2, E and F).
# (§2) The cDNA of hKv1.1, hKv1.2, hKv1.3, rKv1.4, hKv1.5, mKv1.6, and hKv1.7 were subcloned into mammalian expression vectors pcDNA3.1 or pCMV-blank vectors, as well as other plasmids described previously ([35]). Channel mutants were generated by site-directed mutations. Briefly, the parental channel plasmid was amplified using a pair of oppositely directed primers harboring the designed mutation site, with KOD Fx (TOYOBO Co, Ltd). The resulting PCR mix was treated with FastDigest DpnI (Thermo Fisher Scientific) to remove the methylated template. Ten microliters of the digested product was then used to transform 100 μl E. coli DH5α competent cells. Transformants were randomly picked and sequenced to confirm the presence of the intended mutation.
# (§3) CHO-K1 cells were selected for expressing Kv channels due to their lack of endogenous Kv channels, while HEK293 or ND7/23 cells were used for Nav and Cav channel expression. CHO-K1 cells were cultured in a Dulbecco's modified Eagle's medium/Ham's F-12 nutrient mixture (DMEM-F12) medium, and HEK293T and ND7/23 cells in DMEM medium, all supplemented with 10% fetal bovine serum and 1% penicillin-streptomycin (all from Gibco, Thermo Fisher Scientific, Inc) under standard conditions (37 °C, 5% CO2, and saturated humidity). These cell lines were purchased from Stem Cell Bank, Chinese Academy of Sciences. Channel plasmids were cotransfected with pEGFP-N1 (encoding GFP) into the respective cells using lipofectamine 2000, following the manufacturer's instructions (Invitrogen, Thermo Fisher Scientific, Inc.). Nav1.9-GFP plasmid was transfected into ND7/23 using the X-tremeGENE HP DNA Transfection Reagent (Roche). After 4 to 6 h transfection, cells were seeded onto poly-lysine–coated coverslips, and 24 to 36 h later, transfected cells were ready for patch-clamp analysis.
# (§4) Patch clamp experiments were conducted using an electrophysiology platform comprising a MultiClamp 700B amplifier and an Axon Digidata 1550 AD/DA convertor (Axon Instruments). Data acquisition was performed with pClamp 10.5 software (Axon Instruments). All experiments were performed at room temperature.
# (§5) For Kv current recordings, the bath solution contained (in mM) the following: 140 NaCl, 5 KCl, 1 MgCl2, 2 CaCl2, 10 glucose, and 10 Hepes (pH 7.3, adjusted with NaOH), and the pipette solution contained (in mM) the following: 140 KCl, 2.5 MgCl2, 11 EGTA, and 10 Hepes (pH 7.3, adjusted with KOH). Series resistance was maintained below 10 MΩ and compensated to 80%. Concentration–response curves were fitted by the Hill equation to determine the toxin's potency. Whole cell conductance (G) at each depolarizing voltage (V) was determined using the equation: G = I/(V−Vrev), where I is the current amplitude, and Vrev is the reversal potential. […]
# [2] = system: Kv1.3/1.1 S3-S4 chimeric channel; assay: Whole-cell patch clamp, chimeric channel; format: cell-based, human; settings: +30 mV, mean ± SD
# Text: as §1, §2, §3, §4, §5
# [3] = system: Kv1.1/1.3 S1-S2 chimeric channel; assay: Whole-cell patch clamp, chimeric channel; format: cell-based, human; settings: +30 mV, mean ± SD
# Text: as §1, §2, §3, §4, §5
# [4] = system: Kv1.3/1.7 S3-S4 chimeric channel; assay: Whole-cell patch clamp, chimeric channel; format: cell-based, human; settings: current at 495 ms, +30 mV, IC50 could not be fitted, mean ± SD, n = 5-6
# Text: as §1, §2, §3, §4, §5
# [5] = biological target: T1, mKv1.6 (Mus musculus, UniProt Q61923); assay: Whole-cell patch clamp, Kv1.6 ionic current in CHO-K1 cells; format: cell-based; settings: +30 mV, 500 ms, holding −80 mV, mean ± SD, n = 4–7, read-out: IC50, inhibition of Kv1.6 current (full inhibition)
# T1 construct: expressed in transfected cells; host or cells: CHO-K1
# T1 sequence (Q61923 whole entry): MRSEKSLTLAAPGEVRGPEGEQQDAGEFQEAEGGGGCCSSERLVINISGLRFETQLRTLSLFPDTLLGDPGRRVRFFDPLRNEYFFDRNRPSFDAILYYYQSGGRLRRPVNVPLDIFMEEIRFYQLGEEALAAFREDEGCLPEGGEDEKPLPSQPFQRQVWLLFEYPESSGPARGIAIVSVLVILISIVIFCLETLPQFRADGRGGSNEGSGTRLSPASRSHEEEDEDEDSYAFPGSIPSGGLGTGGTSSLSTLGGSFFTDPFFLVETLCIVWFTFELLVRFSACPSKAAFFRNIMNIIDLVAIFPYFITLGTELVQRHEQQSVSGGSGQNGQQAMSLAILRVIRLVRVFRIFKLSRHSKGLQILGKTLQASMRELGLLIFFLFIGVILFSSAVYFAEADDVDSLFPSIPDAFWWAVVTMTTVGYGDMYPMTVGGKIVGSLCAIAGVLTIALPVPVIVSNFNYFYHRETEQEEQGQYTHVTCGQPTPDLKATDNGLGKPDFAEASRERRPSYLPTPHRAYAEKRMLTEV
# Procedure: as §2, with “Transformants were randomly picked and sequenced to confirm the presence of the intended mutation.” left out
# (§6) CHO-K1 cells were selected for expressing Kv channels due to their lack of endogenous Kv channels, while HEK293 or ND7/23 cells were used for Nav and Cav channel expression. […] After 4 to 6 h transfection, cells were seeded onto poly-lysine–coated coverslips, and 24 to 36 h later, transfected cells were ready for patch-clamp analysis. […]
# For Kv current recordings, the bath solution contained (in mM) the following: 140 NaCl, 5 KCl, 1 MgCl2, 2 CaCl2, 10 glucose, and 10 Hepes (pH 7.3, adjusted with NaOH), and the pipette solution contained (in mM) the following: 140 KCl, 2.5 MgCl2, 11 EGTA, and 10 Hepes (pH 7.3, adjusted with KOH). […] The steady-state fast inactivation of Kv1.3 was measured using a two-pulses protocol. […]
# [6] = system: Kv1.3/Kv1.4 S3-S4 chimeric channel; assay: Whole-cell patch clamp, chimeric channel; format: cell-based, human/rat; settings: +30 mV, mean ± SD, n = 5-6
# Text: To investigate the structural determinants underlying the differential regulatory effects of MrVIII on Kv1 channels, we employed a chimeric channel strategy. Using Kv1.3 as the template, the S1-S2, S3-S4, and S5-S6 transmembrane helices and their respective linkers from Kv1.1 were inserted to generate chimeras, generating the Kv1.3/1.1 S1-S2, Kv1.3/1.1 S3-S4, and Kv1.3/1.1 S5-S6 chimeric channels. […] These findings indicate that the S3-S4 is the key determinant for the differential inhibition of Kv1.1 and Kv1.3 by MrVIII. To further validate this conclusion, we constructed a reverse chimeric channel using Kv1.1 as the template, inserting the corresponding regions from Kv1.3 into Kv1.1. […] This finding more directly illustrates the exchange of the channel's voltage-dependence phenotype in toxin inhibition by swapping this S3-S4 between Kv1.1 and Kv1.3. […] In addition to confirming the differential role of S3-S4 between Kv1.1 and Kv1.3, we also substituted the S3-S4 of Kv1.4 and Kv1.7 into Kv1.3 to analyze MrVIII's inhibition profile. […]
# as §6
compound,measurement,setting,value
"CC[C@H](C)[C@@H]1NC(=O)[C@H](Cc2ccc(O)cc2)NC(=O)[C@H](CCC(N)=O)NC(=O)[C@@H]2CCCN2C(=O)[C@@H]2CSSC[C@H](NC(=O)[C@H](C)NC(=O)[C@H](CO)NC(=O)[C@H](CCC(=O)O)NC(=O)[C@H](CCC(=O)O)NC(=O)[C@@H](N)[C@@H](C)O)C(=O)NCC(=O)NCC(=O)N[C@@H](Cc3ccccc3)C(=O)N[C@@H](CC(N)=O)C(=O)N[C@@H](C)C(=O)N[C@@H](CCCNC(=N)N)C(=O)N[C@H]3CSSC[C@H](NC1=O)C(=O)N[C@@H](CCCCN)C(=O)NCC(=O)N[C@@H](Cc1c[nH]c4ccccc14)C(=O)N[C@@H](CCCNC(=N)N)C(=O)N[C@@H]([C@@H](C)O)C(=O)N[C@@H](CCCCN)C(=O)N[C@@H](CCCNC(=N)N)C(=O)N[C@H](C(=O)N[C@@H](CC(C)C)C(=O)N[C@@H](CC(N)=O)C(=O)N1CCC[C@H]1C(=O)O)CSSC[C@H](NC(=O)[C@H](CCCCN)NC(=O)[C@H](Cc1c[nH]cn1)NC(=O)[C@H](CC(C)C)NC(=O)[C@@H]1CCCN1C3=O)C(=O)N2 [MrVIII] (H-TEESACGGFNARCPLHKCCPQYICKGWRTKRCLNP-OH; disulfide 6-19, 13-24, 18-32; N-terminus and C-terminus assumed)",IC50,[1],1.7 ± 0.6 nM
same,IC50,"[2]; current at 50 ms, n = 4-5",230 ± 123 nM
same,"inhi%(495 ms), Kv1.3/1.1 S3-S4 current","[2]; current at 495 ms, negative = current enhanced",−10.0 ± 13.9%
same,IC50,"[3]; current at 50 ms, n = 4-5",103 ± 59.1 nM
same,"inhi%(495 ms), Kv1.1/1.3 S1-S2 current",[3]; current at 495 ms,60.5 ± 18.5%
same,"inhi%(495 ms), Kv1.3/1.7 S3-S4 current",[4],23.1 ± 10.0%
same,IC50,[5],13.4 ± 6.7 nM
same,IC50,[6]; current at 50 ms,117 ± 48.2 nM
same,"inhi%(495 ms), Kv1.3/Kv1.4 S3-S4 current",[6]; current at 495 ms,37.9 ± 5.4%
